{
  "source": "patent US20220339260A1",
  "about": "“METHOD FOR PRODUCING INSULIN-PRODUCING CELL USING DIHYDROINDOLIZINONE DERIVATIVES” (TOKYO INSTITUTE OF TECHNOLOGY, priority 2019, published 2022)",
  "key": {"SK7 mouse ES cells": {"tested_on": "SK7 mouse ES cells", "test": "Screening for β cell differentiation enhancer using SK7 mouse ES cells (Pdx1-GFP)", "type": "cell-based", "method": "The SK7 mouse ES cells were differentiated into β cells basically according to the previous report (Nakashima et al., 2015). Briefly, the cells were seeded at 5,000 cells per well in CellBIND 384-well (CORNING, 3770) cell culture plate or at 20,000 cells per well in a 96-well plate (Sigma) coated with 0.2% gelatin. Then, the cells were cultured in medium 1 from days 1 to 5. Medium 1 consisted of DMEM (high glucose) (Life Technologies, 11965092) supplemented with 0.1 mM NEAA (Gibco, 11140-50), 2 mM L-glutamine (Nacalai, 16948-04), 100 U/mL penicillin-streptomycin (Nacalai, 26252-94), 0.01 mM β-mercaptoethanol (Sigma), 1% insulin-transferrin-selenium supplement (ITS: Life Technologies, 41400045), 0.25% Albumax (Thermo Fisher, 11020021), and 10 ng/mL recombinant human activin-A (R&D Systems, 338-AC). Subsequently, the cells were cultured for 1 day in medium 2 which consisted of medium 1 supplemented with 10 μM retinoic acid (Stemgent, 04-0021). On day 6, the medium was replaced with medium 3, and the culture was continued until day 12 in order to induce differentiation into β cells. Medium 3 consisted of DMEM (low glucose) (Life Technologies, 11885084) supplemented with 0.1 mM NEAA, 2 mM L-glutamine, 100 U/mL penicillin-streptomycin, 0.1 mM β-mercaptoethanol, 1% ITS, 0.25% Albumax, and 3 mM nicotinamide (Sigma-Aldrich, N0636-500G). A test compound was added on day 8, and the cells were fixed in 4% paraformaldehyde for analysis using a high-content imager.\nA chemical library consisting of about 55,000 compounds was screened for a substance that induced β cell differentiation. […] Fluorescence images were quantified using Operetta high-content imaging system and Harmony image analysis software (PerkinElmer, Germany). The nuclei were identified by DAPI staining, and the positivity of antibody staining was determined from the fluorescence intensity of a cytoplasmic region surrounding the nucleus. The number of cells positive to both insulin and GFP was counted and normalized with the total number of DAPI-positive cells or a positive area. A median of quadruple data was calculated, and screening hits were defined as states in which the number of insulin- and GFP-positive cells was increased as compared with a DMSO control. […] The activity of the selected candidate compounds was further analyzed with Toe human iPS cell assay system in order to select a hit compound having effectiveness for both differentiation into mouse β cells and differentiation into human β cells. A compound was added as described above, and its effectiveness was evaluated from a mRNA expression level by q-PCR in triplet experiments. […]"}, "Toe human iPS cells": {"tested_on": "Toe human iPS cells", "test": "Differentiation of Toe human iPS cells into iPS-β cells, monolayer culture, protocol #1", "type": "cell-based", "conditions": "treatment from later stage of stage 3 to initial stage of stage 5", "method": "The Toe human iPS cells were seeded in CellBIND 6-well (CORNING, CLS3335) cell culture plate coated with synthemax II, and differentiated into primitive gut tube cells by the previously described method (Shahjalal et al., 2014). The cells were dissociated with TrypLE Select (Thermo Fisher, 12563011) and cryopreserved in BanBanker (Nippon genetics) at a density of 1.0 to 2.0×10^7 cells/mL until use. One day before compound addition, the cells were thawed in a medium for stage 3 (DMEM (high glucose), 0.25 μM SANT1 (Wako, 197-16351), 0.1 μM LDN193189 (Stemgent, 04-0074), 10 μM SB431542, 2 μM retinoic acid, 1% B27-free serum supplement (Life Technologies, 17504044), and seeded at 150,000 cells per well in CellBIND 96-well (Corning, 3340) cell culture plated coated with synthemax II. The cells were cultured for 1 day in a medium for stage 3 containing a test compound or a negative control (0.01% DMSO). The cells were further cultured for 2 days and 1 day in media for stages 4 and 5, respectively, containing the test compound or the negative control. On the next day, the cells were fixed in 4% paraformaldehyde for analysis using a high-content imager."}},
  "data": [
    {"smiles": "O=C1CCC(C(=O)Nc2ncc(-c3ccccc3)s2)n2cccc21", "note": "(stereo not shown) [Synthesis Example 1, 8-Oxo-N-(5-phenylthiazol-2-yl)-6,7-dihydro-5H-indolizine-5-carboxamide]", "values": [
      {"measurement": "number of Pdx1-GFP+Ins+ double-positive cells", "setting": "SK7 mouse ES cells; K-1 in combination with γ-secretase inhibitor LY411575", "value": "further enhanced increase"},
      {"measurement": "ratio of Pdx1-GFP+insulin+ double-positive cells", "setting": "SK7 mouse ES cells; dose-dependent, compound added on day 8", "value": "increased"},
      {"measurement": "expression of insulin 1", "setting": "SK7 mouse ES cells; dose-dependent, mRNA normalized with Hprt1", "value": "increased"},
      {"measurement": "differentiation into iPS-β cells (INS+ cells)", "setting": "Toe human iPS cells", "value": "enhanced differentiation into iPS-β cells"}
    ]}
  ]
}
